Results taken from patent US20260117070A1, “NEAR-INFRARED FLUORESCENT HEPTAMETHINE DYE CONJUGATES WITH FAVORABLE BLEACHING PROPERTIES” (HELMHOLTZ ZENTRUM MÜNCHEN DEUTSCHES FORSCHUNGSZENTRUM FÜR …, priority 2022, published 2026).

Assays:
[1] = Procedure for determining photostability (bleaching in vitro, continuous 785 nm irradiation); type: physicochemical
Procedure: 4C): Bleaching in vitro: Capillaries filled with 2.5 μM solutions in serum were continuously irradiated using a 785 nm laser (100 mW/cm^2) and frames were acquired for 20 minutes. Bleaching kinetics were extracted by analyzing the mean counts in an ROI overtime
Imaging was performed on a custom-built setup. LUMICS laser unit LU0785DLU250-S70AN03 (25 W) 785 nm″ was used for excitation. Laser was externally controlled using a LUMICS laser diode control system. Laser output was coupled in a 4×1 fan-out fiber-optic bundle (THORLABS BF46LSO1) of 600 μm core diameter for each optical path. The output from the fiber was fixed in an excitation cube (THORLABS KCB1EC/M), reflected off of a mirror (THORLABS BBE1-E03), and passed through a positive achromat (THORLABS AC254-050-B), SP filter (THORLABS FESH800) and an engineered diffuser (THORLABS ED1-S20-MD or ED1-S50-MD) to provide uniform illumination over the working area. In a typical experiment, the excitation flux in the field of view was adjusted to be close to 100 mWcm^−2. Power density was determined using a THORLABS energy meter console PM100D in combination with a THORLABS S130C sensor (measurement uncertainty of ±3%). The working area was covered by blackout fabric (THORLABS BK5). Emitted light was directed through two filters (THORLABS FELH800) screwed onto a EDMUND OPTICS Acktar Hexa-Black 25 mm noise reduction extension tube, via a C-mount camera lens (NAVITAR SWIR-35) onto an NIR-camera (PCO Edge 4.2 or Prime BSI). The software μManager was used to externally control the camera. The assembly was partially enclosed to avoid excess light while enabling manipulation of the field of view during operation.
For each dye (conjugate), solutions in H2O and FBS with an OD (785 nm)<1.0 in a 1 cm cuvette (HELLMA 115B-QS) were prepared. […] In order to be able to make useful comparison between different samples and experiments, the time axis was converted into a number of absorbance events by multiplication with the “absorptions per molecule per second”.

MDA-MB-468 cells = assay: In vivo distribution of NIR-fluorescent Panitumumab conjugates in tumor bearing mice; settings: 24 hrs after intravenous injection; 3 μg or 100 μg dose
From the text: FIG. 5: Comparing Pan-sNIR (NIR-fluorescent Panitumumab) and Pan-IRDye800CW in tumor bearing mice post intraveneous injection. Mice were generated by subcutaneous implantation of MDA-MB-468 cells.

Molecule: C#CCCCCNC(=O)C(=C\C=C\C1=[N+](CCCCS(=O)(=O)[O-])c2ccc(S(=O)(=O)[O-])cc2C1(C)C)/C=C/C=C1/N(CCCCS(=O)(=O)[O-])c2ccc(S(=O)(=O)[O-])cc2C1(C)C.[Na+].[Na+].[Na+] [sNIR, sodium 2-((1E,3Z,5E)-7-((E)-3,3-dimethyl-5-sulfonato-1-(4-sulfonatobutyl)indolin-2-ylidene)-4-(hex-5-yn-1-ylcarbamoyl)hepta-1,3,5-trien-1-yl)-3,3-dimethyl-1-(4-sulfonatobutyl)-3H-indol-1-ium-5-sulfonate]
- more photostable than NIR, IRDye®8000W ([1]; fetal bovine serum (FBS)): 2.5 times
- more stable than ICG ([1]; fetal bovine serum (FBS)): 1.6 times
- bleaching slower than NIR, ICG and IRDye®8000W ([1]; water): 3.5 times

Molecule: Pan-8000W: Panitumumab-IRDye800, prepared in a similar fashion [reference compound]
- tumor signal than/over the liver (MDA-MB-468 cells): 1.4-1.8 ×
